Results: ChEMBL document CHEMBL4145533, “6,7-Dimorpholinoalkoxy quinazoline derivatives as potent EGFR inhibitors with enhanced antiproliferative activities against tumor cells” (Eur J Med Chem, 2018)
Activity calls are given as the source filed them. No cut-off for these calls is given here.

What was measured:
[1] = biological target: Epidermal growth factor receptor (Homo sapiens, UniProt P00533, L858R); assay: Inhibition of EGFR L858R mutant (unknown origin) using ULight-poly GT as substrate preincubated for 120 mins followed by substrate addition measured after 2 hrs by spectrophotometric method
Chain of Epidermal growth factor receptor (Homo sapiens, UniProt P00533, L858R) (P00533 25-1210 L858R limits assumed): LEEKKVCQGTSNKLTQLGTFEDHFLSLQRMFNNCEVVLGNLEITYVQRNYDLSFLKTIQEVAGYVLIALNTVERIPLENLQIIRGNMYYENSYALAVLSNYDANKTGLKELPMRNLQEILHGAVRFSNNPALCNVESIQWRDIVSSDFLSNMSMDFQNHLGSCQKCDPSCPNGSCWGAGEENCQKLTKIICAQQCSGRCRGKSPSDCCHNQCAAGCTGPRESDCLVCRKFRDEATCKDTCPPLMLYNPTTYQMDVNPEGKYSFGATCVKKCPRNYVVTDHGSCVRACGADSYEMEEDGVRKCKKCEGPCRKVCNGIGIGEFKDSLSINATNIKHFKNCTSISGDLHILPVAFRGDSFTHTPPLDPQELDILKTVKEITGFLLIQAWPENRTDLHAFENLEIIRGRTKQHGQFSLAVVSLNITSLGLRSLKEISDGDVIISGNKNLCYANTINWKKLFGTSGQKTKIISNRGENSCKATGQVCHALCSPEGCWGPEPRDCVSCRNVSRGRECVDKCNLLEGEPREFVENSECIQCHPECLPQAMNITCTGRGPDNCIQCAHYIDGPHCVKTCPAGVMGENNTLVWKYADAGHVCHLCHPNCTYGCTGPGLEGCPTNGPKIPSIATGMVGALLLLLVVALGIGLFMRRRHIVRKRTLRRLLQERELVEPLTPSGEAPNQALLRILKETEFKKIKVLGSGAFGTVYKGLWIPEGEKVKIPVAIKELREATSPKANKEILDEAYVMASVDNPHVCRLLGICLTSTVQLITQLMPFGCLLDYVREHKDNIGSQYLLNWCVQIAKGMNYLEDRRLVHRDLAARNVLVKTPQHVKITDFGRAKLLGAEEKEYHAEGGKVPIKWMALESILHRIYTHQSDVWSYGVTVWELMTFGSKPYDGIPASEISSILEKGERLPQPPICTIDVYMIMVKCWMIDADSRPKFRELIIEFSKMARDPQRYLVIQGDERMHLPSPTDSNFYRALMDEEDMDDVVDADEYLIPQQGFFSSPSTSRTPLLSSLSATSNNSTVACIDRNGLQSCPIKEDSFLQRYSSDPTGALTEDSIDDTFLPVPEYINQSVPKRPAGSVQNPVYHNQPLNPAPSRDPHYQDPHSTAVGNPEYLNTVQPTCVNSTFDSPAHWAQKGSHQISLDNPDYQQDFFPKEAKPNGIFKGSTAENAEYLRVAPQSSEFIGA

A549 [2] = assay: Induction of apoptosis in human A549 cells assessed as viable cells at 2 uM after 48 hrs by Annexin V-FITC/propidium iodide satining based FACS analysis (reference value: 95.87%); type: functional; settings: A549, 48 h, read-out: Activity
A549 [3] = assay: Cell cycle arrest in human A549 cells assessed as accumulation at G2/M phase at 1 uM after 48 hrs by propidium iodide satining based FACS analysis (reference value: 16.09%); type: functional
A549 [4] = assay: Cell cycle arrest in human A549 cells assessed as accumulation at G0/G1 phase at 2 uM after 48 hrs by propidium iodide satining based FACS analysis (reference value: 48.87%); type: functional
[5] = biological target: T1, Epidermal growth factor receptor (Homo sapiens, UniProt P00533); settings: A549, at 5 µM
T1 sequence (P00533 whole entry): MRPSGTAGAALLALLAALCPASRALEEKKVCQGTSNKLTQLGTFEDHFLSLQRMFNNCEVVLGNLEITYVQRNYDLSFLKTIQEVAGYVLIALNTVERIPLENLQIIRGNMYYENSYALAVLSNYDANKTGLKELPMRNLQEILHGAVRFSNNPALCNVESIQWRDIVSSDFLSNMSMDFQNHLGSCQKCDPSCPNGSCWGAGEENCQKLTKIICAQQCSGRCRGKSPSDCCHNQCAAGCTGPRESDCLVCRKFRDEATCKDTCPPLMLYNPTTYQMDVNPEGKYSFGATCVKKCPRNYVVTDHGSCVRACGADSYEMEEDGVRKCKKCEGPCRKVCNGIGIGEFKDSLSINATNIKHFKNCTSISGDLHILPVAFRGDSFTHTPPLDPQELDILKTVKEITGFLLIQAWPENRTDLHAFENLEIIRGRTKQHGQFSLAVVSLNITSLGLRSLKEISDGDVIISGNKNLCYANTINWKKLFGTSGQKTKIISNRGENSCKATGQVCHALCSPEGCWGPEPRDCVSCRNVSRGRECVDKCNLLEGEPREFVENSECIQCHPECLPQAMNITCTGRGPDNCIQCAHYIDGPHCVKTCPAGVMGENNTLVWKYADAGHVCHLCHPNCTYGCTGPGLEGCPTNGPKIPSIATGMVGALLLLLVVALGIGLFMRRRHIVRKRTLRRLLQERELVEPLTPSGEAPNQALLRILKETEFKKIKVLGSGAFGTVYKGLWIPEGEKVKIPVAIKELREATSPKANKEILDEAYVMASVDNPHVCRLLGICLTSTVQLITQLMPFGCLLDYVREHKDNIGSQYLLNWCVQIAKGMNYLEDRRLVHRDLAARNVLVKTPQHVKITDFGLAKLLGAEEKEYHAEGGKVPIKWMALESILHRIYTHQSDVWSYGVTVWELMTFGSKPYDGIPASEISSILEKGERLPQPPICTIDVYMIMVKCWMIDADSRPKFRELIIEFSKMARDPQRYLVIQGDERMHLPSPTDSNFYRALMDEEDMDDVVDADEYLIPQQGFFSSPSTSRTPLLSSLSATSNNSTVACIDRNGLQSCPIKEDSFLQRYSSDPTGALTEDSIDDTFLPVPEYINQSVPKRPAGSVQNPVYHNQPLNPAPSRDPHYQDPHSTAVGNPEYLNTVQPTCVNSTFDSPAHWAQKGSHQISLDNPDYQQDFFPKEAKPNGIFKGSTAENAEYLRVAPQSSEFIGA
Description: Inhibition of EGF-induced EGFR activation in human A549 cells assessed as reduction in ERK1/2 phosphorylation at T202/Y204 residues at 5 uM preincubated for 2 hrs followed by EGF stimulation measured after 10 mins by Western blot analysis

A549 [6] = assay: Cell cycle arrest in human A549 cells assessed as accumulation at G2/M phase at 0.5 uM after 48 hrs by propidium iodide satining based FACS analysis (reference value: 16.09%); type: functional
A549 [7] = assay: Cell cycle arrest in human A549 cells assessed as accumulation at G0/G1 phase at 1 uM after 48 hrs by propidium iodide satining based FACS analysis (reference value: 48.87%); type: functional
A549 [8] = assay: Effect on total EGFR protein expression in human A549 cells at 0.2 to 5 uM after 2 hrs by Western blot analysis; type: ADME, cell-based; settings: a549, 2 h
A549 [9] = assay: Cell cycle arrest in human A549 cells assessed as accumulation at G2/M phase at 5 uM after 48 hrs by propidium iodide satining based FACS analysis (reference value: 16.09%); type: functional
SW480 = assay: Antiproliferative activity against human SW480 cells harboring wild type EGFR after 72 hrs by MTT assay; type: functional, cell-based; settings: SW480, 72 h
A549 [10] = assay: Induction of apoptosis in human A549 cells assessed as early apoptotic cells at 4 uM after 48 hrs by Annexin V-FITC/propidium iodide satining based FACS analysis (reference value: 2.78%); type: functional
A549 [11] = assay: Induction of apoptosis in human A549 cells assessed as late apoptotic cells at 4 uM after 48 hrs by Annexin V-FITC/propidium iodide satining based FACS analysis (reference value: 1.21%); type: functional
A549 [12] = assay: Induction of apoptosis in human A549 cells assessed as viable cells at 3 uM after 48 hrs by Annexin V-FITC/propidium iodide satining based FACS analysis (reference value: 95.87%); type: functional; settings: A549, 48 h, read-out: Activity
A549 [13] = assay: Induction of apoptosis in human A549 cells assessed as late apoptotic cells at 2 uM after 48 hrs by Annexin V-FITC/propidium iodide satining based FACS analysis (reference value: 1.21%); type: functional
A549 [14] = assay: Antiproliferative activity against human A549 cells harboring wild type EGFR/K-ras mutant after 72 hrs by MTT assay; type: functional, cell-based; settings: A549, 72 h
A-431 = assay: Antiproliferative activity against human A431 cells harboring wild type EGFR after 72 hrs by MTT assay; type: functional, cell-based; settings: A-431, 72 h
[15] = biological target: T1, Epidermal growth factor receptor; assay: Inhibition of EGF-induced EGFR activation in human A549 cells assessed as reduction in ERK1/2 phosphorylation at T202/Y204 residues at 0.2 uM preincubated for 2 hrs followed by EGF stimulation measured after 10 mins by Western blot analysis; type: cell-based
[16] = biological target: T1, Epidermal growth factor receptor; settings: A549, at 5 µM; remark: listed apart in the source
Description: Inhibition of EGF-induced EGFR activation in human A549 cells assessed as reduction in Akt phosphorylation at S473 residue at 5 uM preincubated for 2 hrs followed by EGF stimulation measured after 10 mins by Western blot analysis

[17] = biological target: T1, Epidermal growth factor receptor; assay: Inhibition of EGF-induced EGFR phosphorylation at Tyrosine residue in human A549 cells at 0.2 uM preincubated for 2 hrs followed by EGF stimulation measured after 10 mins by Western blot analysis; type: cell-based
[18] = biological target: T1, Epidermal growth factor receptor; assay: Inhibition of EGF-induced EGFR phosphorylation at Y1086 residue in human A549 cells at 0.2 uM preincubated for 2 hrs followed by EGF stimulation measured after 10 mins by Western blot analysis; type: cell-based
[19] = system: Epidermal growth factor receptor (Homo sapiens), P00533 [L858R,T790M]; assay: Inhibition of EGF-induced EGFR L858R/T790M double mutant phosphorylation at Y992 residue in human NCI-H1975 cells preincubated for 2 hrs followed by EGF stimulation measured after 10 mins by Western blot analysis; type: cell-based
Chain of Epidermal growth factor receptor (Homo sapiens), P00533 [L858R,T790M] (P00533 whole entry T790M/L858R, looked up): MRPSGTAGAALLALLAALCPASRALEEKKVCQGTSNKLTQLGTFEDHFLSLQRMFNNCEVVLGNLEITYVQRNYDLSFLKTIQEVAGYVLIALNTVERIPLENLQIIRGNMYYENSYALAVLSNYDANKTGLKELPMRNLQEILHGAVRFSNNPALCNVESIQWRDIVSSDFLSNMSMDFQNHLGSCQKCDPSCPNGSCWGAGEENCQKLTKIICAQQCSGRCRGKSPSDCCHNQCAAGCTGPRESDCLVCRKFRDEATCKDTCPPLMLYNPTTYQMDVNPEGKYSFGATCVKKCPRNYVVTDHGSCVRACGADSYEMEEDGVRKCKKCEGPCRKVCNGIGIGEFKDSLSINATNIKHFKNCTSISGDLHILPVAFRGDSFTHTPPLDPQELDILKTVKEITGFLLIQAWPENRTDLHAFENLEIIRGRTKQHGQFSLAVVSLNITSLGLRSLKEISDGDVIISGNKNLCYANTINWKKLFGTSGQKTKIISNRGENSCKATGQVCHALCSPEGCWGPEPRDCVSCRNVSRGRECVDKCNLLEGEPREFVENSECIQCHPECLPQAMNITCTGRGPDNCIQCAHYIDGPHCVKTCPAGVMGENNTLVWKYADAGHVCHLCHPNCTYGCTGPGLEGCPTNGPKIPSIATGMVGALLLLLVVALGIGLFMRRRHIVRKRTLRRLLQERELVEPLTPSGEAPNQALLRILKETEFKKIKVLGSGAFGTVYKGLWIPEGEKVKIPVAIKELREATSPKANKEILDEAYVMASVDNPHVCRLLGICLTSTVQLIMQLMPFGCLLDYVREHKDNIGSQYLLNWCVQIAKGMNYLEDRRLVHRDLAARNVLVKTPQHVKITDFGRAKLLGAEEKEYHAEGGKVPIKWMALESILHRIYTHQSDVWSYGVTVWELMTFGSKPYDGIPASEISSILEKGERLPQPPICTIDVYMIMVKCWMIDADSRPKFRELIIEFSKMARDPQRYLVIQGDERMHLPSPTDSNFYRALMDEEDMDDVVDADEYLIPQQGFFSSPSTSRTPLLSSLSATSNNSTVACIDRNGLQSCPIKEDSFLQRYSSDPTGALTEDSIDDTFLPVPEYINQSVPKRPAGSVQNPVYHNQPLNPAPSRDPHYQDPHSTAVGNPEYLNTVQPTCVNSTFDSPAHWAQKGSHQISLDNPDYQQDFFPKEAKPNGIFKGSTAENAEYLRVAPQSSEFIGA

A549 [20] = assay: Induction of apoptosis in human A549 cells assessed as necrotic cells at 4 uM after 48 hrs by Annexin V-FITC/propidium iodide satining based FACS analysis (reference value: 0.14%); type: functional
[21] = system: Epidermal growth factor receptor (Homo sapiens), P00533 [L858R,T790M]; assay: Inhibition of EGF-induced EGFR L858R/T790M double mutant phosphorylation at Tyrosine residue in human NCI-H1975 cells preincubated for 2 hrs followed by EGF stimulation measured after 10 mins by Western blot analysis; type: cell-based
A549 [22] = assay: Cell cycle arrest in human A549 cells assessed as accumulation at G2/M phase at 2 uM after 48 hrs by propidium iodide satining based FACS analysis (reference value: 16.09%); type: functional
A549 [23] = assay: Cell cycle arrest in human A549 cells assessed as accumulation at S phase at 2 uM after 48 hrs by propidium iodide satining based FACS analysis (reference value: 34.45%); type: functional
A549 [24] = assay: Cell cycle arrest in human A549 cells assessed as accumulation at G0/G1 phase at 5 uM after 48 hrs by propidium iodide satining based FACS analysis (reference value: 48.87%); type: functional
[25] = biological target: Epidermal growth factor receptor (Homo sapiens, UniProt P00533, L858R/T790M); assay: Inhibition of EGFR L858R/T790M double mutant (unknown origin) using ULight-poly GT as substrate preincubated for 30 mins followed by substrate addition measured after 1 hr by spectrophotometric method
Chain of Epidermal growth factor receptor (Homo sapiens, UniProt P00533, L858R/T790M) (P00533 25-1210 T790M/L858R limits assumed): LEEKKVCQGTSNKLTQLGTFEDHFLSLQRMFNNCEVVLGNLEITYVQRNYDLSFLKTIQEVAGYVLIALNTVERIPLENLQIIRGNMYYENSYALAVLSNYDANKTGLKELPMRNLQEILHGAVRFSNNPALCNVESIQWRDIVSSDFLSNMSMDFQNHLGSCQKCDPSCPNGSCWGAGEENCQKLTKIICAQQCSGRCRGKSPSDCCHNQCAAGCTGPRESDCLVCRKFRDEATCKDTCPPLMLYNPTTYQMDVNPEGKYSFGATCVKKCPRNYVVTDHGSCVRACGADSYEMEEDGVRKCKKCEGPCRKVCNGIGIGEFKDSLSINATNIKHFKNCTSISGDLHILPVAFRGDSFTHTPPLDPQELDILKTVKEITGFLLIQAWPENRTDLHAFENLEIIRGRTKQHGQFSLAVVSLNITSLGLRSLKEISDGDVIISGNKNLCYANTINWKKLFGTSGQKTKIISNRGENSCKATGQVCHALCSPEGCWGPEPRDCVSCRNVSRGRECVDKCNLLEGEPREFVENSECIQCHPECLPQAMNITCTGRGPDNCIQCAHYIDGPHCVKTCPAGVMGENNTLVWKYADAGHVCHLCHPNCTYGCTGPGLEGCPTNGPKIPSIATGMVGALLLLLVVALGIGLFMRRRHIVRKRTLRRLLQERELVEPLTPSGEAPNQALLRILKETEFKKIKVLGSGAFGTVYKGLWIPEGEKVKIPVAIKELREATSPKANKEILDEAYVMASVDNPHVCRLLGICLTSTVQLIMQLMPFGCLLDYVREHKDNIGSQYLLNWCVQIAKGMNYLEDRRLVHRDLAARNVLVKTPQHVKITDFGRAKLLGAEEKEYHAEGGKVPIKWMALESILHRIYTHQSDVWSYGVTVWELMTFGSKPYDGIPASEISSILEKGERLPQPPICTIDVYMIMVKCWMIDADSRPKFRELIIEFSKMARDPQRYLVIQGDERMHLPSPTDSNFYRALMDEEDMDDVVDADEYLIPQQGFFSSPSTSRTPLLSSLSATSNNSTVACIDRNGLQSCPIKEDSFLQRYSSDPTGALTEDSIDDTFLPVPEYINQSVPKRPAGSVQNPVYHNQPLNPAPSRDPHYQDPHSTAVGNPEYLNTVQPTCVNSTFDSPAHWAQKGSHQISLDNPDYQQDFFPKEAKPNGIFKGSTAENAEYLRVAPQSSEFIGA

A549 [26] = assay: Effect on total Erk1/2 protein expression in human A549 cells at 0.2 to 5 uM after 2 hrs by Western blot analysis; type: ADME, cell-based; settings: a549, 2 h
[27] = system: Epidermal growth factor receptor (Homo sapiens), P00533 [L858R,T790M]; assay: Inhibition of EGF-induced EGFR L858R/T790M double mutant activation in human NCI-H1975 cells assessed as reduction in ERK1/2 phosphorylation at T202/Y204 residues at 5 uM preincubated for 2 hrs followed by EGF stimulation measured after 10 mins by Western blot analysis; type: cell-based
[28] = system: Epidermal growth factor receptor (Homo sapiens), P00533 [L858R,T790M]; assay: Inhibition of EGF-induced EGFR L858R/T790M double mutant activation in human NCI-H1975 cells assessed as reduction in Akt phosphorylation at S473 residue at 5 uM preincubated for 2 hrs followed by EGF stimulation measured after 10 mins by Western blot analysis; type: cell-based
A549 [29] = assay: Induction of apoptosis in human A549 cells assessed as viable cells at 4 uM after 48 hrs by Annexin V-FITC/propidium iodide satining based FACS analysis (reference value: 95.87%); type: functional; settings: A549, 48 h, read-out: Activity
[30] = biological target: T1, Epidermal growth factor receptor; settings: A549, at 5 µM; remark: listed apart in the source
Description: Inhibition of EGF-induced EGFR phosphorylation at Y1086 residue in human A549 cells at 5 uM preincubated for 2 hrs followed by EGF stimulation measured after 10 mins by Western blot analysis

For `Fc1cccc(COc2ccc(Nc3ncnc4cc(OCCCN5CCOCC5)c(OCCCN5CCOCC5)cc34)cc2Cl)c1`, the IC50 [1] was 0.323 µM, the viability at 2 µM (A549 [2]) was 87.9% and the Activity (A549 [3]) was 11.69%. For the same compound, the Activity (A549 [4]) was 58.45%, the inhibition [5] was “Active” and the Activity (A549 [6]) was 14.96%. For the same compound, the Activity (A549 [7]) was 52.91%, the Activity (A549 [8]) was “Non-Toxic” and the Activity (A549 [9]) was 8.8%. For the same compound, the IC50 (SW480) was 3.27 µM, the Activity (A549 [10]) was 14.81% and the Activity (A549 [11]) was 36.18%. For the same compound, the viability at 3 µM (A549 [12]) was 82.8%, the Activity (A549 [13]) was 7.37% and the IC50 (A549 [14]) was 1.65 µM. For the same compound, the IC50 (A-431) was 1.31 µM, the inhibition [15] was “Active” and the inhibition [16] was “Active”. The inhibition [17] was “Active”, the inhibition [18] was “Active” and the inhibition [19] was “Dose-dependent effect”. For the same compound, the Activity (A549 [20]) was 0.57%, the inhibition [21] was “Dose-dependent effect” and the Activity (A549 [22]) was 10.56%. It also gave an Activity (A549 [23]) of 30.54%, an Activity (A549 [24]) of 73.54% and an IC50 [25] greater than 2 µM. The Activity (A549 [26]) was “Non-Toxic”, the inhibition [27] was “Active” and the inhibition [28] was “Active”. The viability at 4 µM (A549 [29]) was 48.4% and the inhibition [30] was “Active”.
